In US11467158B2, “BRCA1 mutations as predictive markers for topoisomerase inhibitions” (BOSTON MEDICAL CENTER CORPORATION, priority 2012, dated 2022):
Entries after “also recorded” stand apart in the source; their conditions may differ. Non-standard residues stand in square brackets, D forms with d. No end group written: not given here. pS = N[C@@H](COP(=O)(O)O)C(=O)O

What was measured:
[1] = molecular target: T1, BRCA1-BRCT domain (Homo sapiens, UniProt P38398); test: fluorescence polarization of Topo I phosphopeptide with GST-BRCT; assay type: binding; conditions: peptide labeled with Alexa Fluor 532, final dilution 1:1000 or 1:500, varying GST-BRCT concentrations
T1 construct: made in house; host or cells: E. coli Rosetta (DE3) pLysS (Novagen)
T1 sequence (P38398 1650-1863): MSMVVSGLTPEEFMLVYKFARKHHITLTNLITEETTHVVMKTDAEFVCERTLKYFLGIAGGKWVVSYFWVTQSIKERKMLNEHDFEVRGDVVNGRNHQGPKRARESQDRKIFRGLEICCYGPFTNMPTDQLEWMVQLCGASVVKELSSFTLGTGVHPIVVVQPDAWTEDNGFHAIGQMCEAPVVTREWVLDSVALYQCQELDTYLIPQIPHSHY
Method: Phosphopeptide labeled with Alexa Fluor 532 was incubated at a final dilution of either 1:1000 or 1:500 with varying concentrations of GST-BRCT or buffer alone. Polarization of the light emitted by the labeled peptide was detected on a Tecan Infinite M1000 pro and is plotted as a function of protein concentration.
An exemplary assay to identify a mutation in the BRCT domain which decreases the binding affinity of the BRCT domain for the phospho-ser10-topo I polypeptide was performed as follows (see FIG. 8): Topo I phosphopeptide NDpSQIEADFRLNDC (SEQ ID NO: 4) was conjugated to Alexa Fluor 532 (Invitrogen) via maleimide reaction with the C-terminal cysteine, as per manufacturer's protocol. Labeled peptide was separated from the reaction mixture by RP-HPLC using C-18 media and eluted with 30% acetonitrile. The partially purified peptide was lyophilized and resuspended in TBS with 1 mM DTT. GST-BRCT was expressed in Rosetta (DE3) pLysS (Novagen) and purified by standard methods. The purified protein was eluted from the GS beads and dialyzed against TBS containing 1 mM DTT and 5% glycerol prior to storage at −80°. […] 20 μl from each dilution was then transferred to each of 4 wells in a 384-well black plate, and FP was read on a Tecan Infinite M1000 pro and plotted as mP as a function of protein concentration.

[2] = tested on: MDAMB231 cells; test: TNBC cell growth inhibition, 72 hours (Celigo); assay type: cell-based
Method: Cells were harvested after designated time and lysed. The cell lysates were analyzed by immunoblot analysis with anti-topo I (upper panel) and anti-β-actin for equal protein loading (lower panel). An infrared secondary antibody was used and a LICOR system was used to visualize the florescence. […] Immunoprecipitates were analyzed by immunoblot analysis with anti-Pan ubiquitin. […] The cell number was counted after 12 hours using a Celigo system. […] The cells were counted again using the Celigo system and growth inhibition was determined using a formula described in the materials and methods section.
To understand the topo I ubiquitination and CPT response, based on the inventors previous early screen, the inventors selected four triple negative breast cancer cell lines with differential rate of UPP mediated topo I degradation. […] To determine the level of CPT induced ubiquitination, control and treated cells were lysed and cell lysates were subjected to immunoprecipitation with anti-topoI. The immunoprecipitates were analyzed by immunoblot analysis with anti-ubiquitin. […] To understand the possible correlation between ubiquitination dependent topo I degradation and CPT response, cells were treated with different concentration of SN-38 and analyzed for percent growth inhibition. […] The highest percent of growth inhibition was detected in BT20 (FIG. 3C). […]

[3] = tested on: SUM52 cells; test: TNBC cell growth inhibition, 72 hours (Celigo); assay type: cell-based; conditions: 10 and 25 nM
Method: (§1) Cells were harvested after designated time and lysed. The cell lysates were analyzed by immunoblot analysis with anti-topo I (upper panel) and anti-β-actin for equal protein loading (lower panel). An infrared secondary antibody was used and a LICOR system was used to visualize the florescence. […] Immunoprecipitates were analyzed by immunoblot analysis with anti-Pan ubiquitin. […] The cell number was counted after 12 hours using a Celigo system. The cells were treated with 10 and 25 nM SN-38 for 72 hours. The cells were counted again using the Celigo system and growth inhibition was determined using a formula described in the materials and methods section.
(§2) To understand the topo I ubiquitination and CPT response, based on the inventors previous early screen, the inventors selected four triple negative breast cancer cell lines with differential rate of UPP mediated topo I degradation. […] To determine the level of CPT induced ubiquitination, control and treated cells were lysed and cell lysates were subjected to immunoprecipitation with anti-topoI. The immunoprecipitates were analyzed by immunoblot analysis with anti-ubiquitin. […] To understand the possible correlation between ubiquitination dependent topo I degradation and CPT response, cells were treated with different concentration of SN-38 and analyzed for percent growth inhibition. […] The highest percent of growth inhibition was detected in BT20 (FIG. 3C). Taken together, rate of topo I degradation by UPP determines the drug sensitivity in triple negative breast cancer cells.

[4] = tested on: BT549 cells; test: TNBC cell growth inhibition, 72 hours (Celigo); assay type: cell-based
Method: as §1, §2

[5] = tested on: BT20 cells; test: TNBC cell growth inhibition, 72 hours (Celigo); assay type: cell-based
Method: as §1, §2

[6] = tested on: topo I; test: topo I degradation in cells (immunoblot with anti-topo I); assay type: cell-based
Method: (§3) Phosphorylated GST-topo I was incubated with purified E1, UbcH5c (E2), and BRCA1/BARD1 (E3) (lane2). Phosphorylated topo I was also incubated with E1 and UbcH5c (E2) only as control (lane 1). Reactions were carried out in ubiquitination buffer at 37° C. for 30 min. The reaction products were analyzed by immunoblot analysis with anti-ubiquitin. […] Immunoprecipitates were analyzed by immunoblot analysis with anti-ubiquitin. […] Control and treated cells were harvested and lysed. Cell lysates were analyzed by immunoblot analysis with anti-topo I (upper panel) and anti-β-actin (lower panel).
as §1
(§4) Control and treated cells were harvested and lysed. Cell lysates were analyzed by immunoblot analysis with anti-topo I (upper panel) and anti-β-actin (lower panel). […] Immunoprecipitates were analyzed by immunoblot analysis with anti-ubiquitin.
(§5) To further validate the findings in cells the inventors used BRCA1 E3 ligase deficient HCC1937 cells. The cells are sensitive to DNA-damaging agents and have impaired BRCA1 E3 ligase function. The inventors have used HCC1937 cells and stably expressed BRCA1 (HCC1937-BRCA1) to restore E3 ligase function. Both, HCC1937 and HCC1937-BRCA1 cells were treated with CPT for 60 minutes and drug free for 30 minutes in the presence of MG132. Control and CPT treated cells were lysed and subjected to immunoprecipitation with anti-topoI. The immunoprecipitates were analyzed by immunoblot analysis with anti-ubiquitin. […] Topo I is degraded in the response to CPT by ubiquitin proteosomal pathways, and the rate of degradation at least in part determines anti neoplastic activity of the drug. To determine the correlation between topo I degradation and CPT efficacy in HCC1937 and HCC1937-BRCA cells, were treated with […] and topo I degradation (FIG. 2C) and cell growth inhibition assays were performed (FIG. 2D).
as §2

[7] = tested on: topo I; test: topo I ubiquitination in cells (anti-topoI immunoprecipitation, anti-ubiquitin immunoblot); assay type: cell-based
Method: as §3, §1, §4, §5, §2

[8] = tested on: HCC1937 cells; test: percent cell growth inhibition after 72 hours (Celigo); assay type: cell-based
Method: as §3, §4, §5

[9] = tested on: HCC1937-BRCA1 cells; test: as above; assay type: cell-based
Method: as §3, §4, §5

[10] = tested on: biosynthesis of nucleic acids; conditions: cited from earlier work
[11] = tested on: Walker 256 tumor; conditions: experimentally transplanted Walker 256 tumor in rats; cited from earlier work
[12] = tested on: leukemia L-1210; conditions: experimentally transplanted leukemia L-1210 in mice; cited from earlier work
[13] = tested on: HIV-1; conditions: acute and chronic infections, in vitro; cited from earlier work

NDpSQIEADFRLNDC (SEQ ID NO: 4) (ND[pS]QIEADFRLNDC; listed as Homo sapiens) [Topo I phosphopeptide, topo I phosphopeptide with phosphorylated S10]
binding to GST-BRCT (fluorescence polarization) [1]: direct interaction
binding to GST-BRCT (fluorescence polarization) ([1]; listed as topo I phosphopeptide): binds directly

CCc1c2c(nc3ccc(O)cc13)-c1cc3c(c(=O)n1C2)COC(=O)[C@]3(O)CC [SN-38]
cell growth under drug ([2]; 50 nM): cells were growing
sensitivity to the drug (growth inhibition) ([2]; 72 hours): remained resistant
percent growth inhibition (compared among four TNBC cell lines) [3]: least
sensitivity to the drug (growth inhibition) [4]: very sensitive
percent growth inhibition (compared among four TNBC cell lines) ([5]; BT20 cells): highest
sensitivity to the drug (growth inhibition) ([5]; BT20 cells (printed BT2020)): very sensitive
topo I degradation ([6]; HCC1937-BRCA1 cells): degrade topo I
topo I degradation ([6]; HCC1937 cells): do not degrade topo I
topo I ubiquitination ([7]; HCC1937-BRCA1 cells (wild type BRCA1 restored), treated 60 minutes, drug free 30 minutes, MG132): pronounced topo I ubiquitination
cell growth inhibition (sensitivity to the drug) [8]: sensitive
cell growth inhibition (sensitivity to the drug) [9]: sensitive

CC[C@@]1(O)C(=O)OCc2c1cc1n(c2=O)Cc2cc3ccccc3nc2-1 [CPT, camptothecin]
inhibitory activity toward the biosynthesis of nucleic acids [10]: strong inhibitory activity
topo I degradation ([6]; BT20 cells, in 2 hours): not appreciably degraded
topo I degradation ([6]; BT549 cells, in 2 hours): not appreciably degraded
topo I degradation ([6]; HCC1937-BRCA1 cells): degrades topo I
topo I degradation ([6]; HCC1937 cells): fails to ubiquitinate and degrade topo I
time in which topo I was degraded ([6]; MDAMB231 cells): ≤ 2 h
time in which topo I was degraded ([6]; SUM52 cells): ≤ 2 h
topo I ubiquitination ([7]; BT20 cells): no ubiquitination
topo I ubiquitination ([7]; BT549 cells): no ubiquitination
topo I ubiquitination ([7]; HCC1937 cells (BRCA1 E3 ligase deficient), treated 60 minutes, drug free 30 minutes, MG132): No ubiquitination; also recorded: fail to ubiquitinate topo I; also recorded: fails to ubiquitinate and degrade topo I
topo I ubiquitination ([7]; MDAMB231 cells): ubiquitinated
topo I ubiquitination ([7]; SUM52 cells): ubiquitinated
anti-tumor activity [11]: potent anti-tumor activity
cell growth inhibition (sensitivity to the drug) [8]: highly sensitive
cell growth inhibition (sensitivity to the drug) [9]: resistant
anti-tumor activity [12]: potent anti-tumor activity

CC[C@@]1(O)C(=O)OCc2c1cc1n(c2=O)Cc2cc3c(CN(C)C)c(O)ccc3nc2-1 [Topotecan]
inhibition of HIV-1 infection [13]: inhibit both acute and chronic HIV-1 infections
